One block for each molecule: values may come before it. Calls of active or inactive are those of the source. The calls are words filed in the database; no cut-off is given here. Numbered stars: 1 amine (or outer) side, 2 acyl side, 3 side chain; on linkers, the order of the positions; unused ones are H or OH. Square brackets hold non-standard residues; d marks the D form. Side chains are listed from the residue outwards. Peptide text beside a SMILES is read from it. * marks the point of attachment. X4 = CN1/C(=C/C=C/C=C/C2=[N+](CCCCCC(=O)*)c3ccc(S(=O)(=O)[O-])cc3C2(C)C)C(C)(C)c2cc(S(=O)(=O)O)ccc21; X3 = C[C@@H](O)[C@@H](C(=O)[*:2])N(CCCn1nnc2c1-c1ccccc1CN([*:3])c1ccccc1-2)[*:1]; Biotin = O=C1N[C@H]2[C@H](CS[C@H]2CCCCC(=O)*)N1; GABA = NCCCC(=O)O
Legend:
[1] = molecular target: T1, GDNF family receptor alpha-like (Homo sapiens, UniProt Q6UXV0); experiment: Binding affinity to C-terminal polyhis-tagged recombinant human GFRAL (19 to 351 residues) expressed in HEK293 cells assessed as dissociation constant with increasing enzyme concentration by SPR analysis
T1 sequence (Q6UXV0 whole entry): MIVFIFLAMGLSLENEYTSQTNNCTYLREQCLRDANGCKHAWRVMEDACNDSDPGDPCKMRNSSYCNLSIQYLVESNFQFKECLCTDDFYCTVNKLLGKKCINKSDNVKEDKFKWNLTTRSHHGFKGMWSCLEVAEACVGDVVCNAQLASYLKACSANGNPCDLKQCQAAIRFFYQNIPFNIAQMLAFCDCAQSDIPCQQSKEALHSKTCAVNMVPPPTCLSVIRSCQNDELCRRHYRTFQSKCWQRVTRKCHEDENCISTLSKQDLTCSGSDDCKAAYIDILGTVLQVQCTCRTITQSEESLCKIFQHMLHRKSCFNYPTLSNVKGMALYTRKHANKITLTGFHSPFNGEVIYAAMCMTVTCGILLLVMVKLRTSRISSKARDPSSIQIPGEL

[2] = test system: Rattus norvegicus; experiment: Effect on pica behaviour in Sprague-Dawley rat assessed as reduction in cisplatin-induced kaolin intake at 100 nmol/kg, IP bid measured for 24 hrs; format: functional
[3] = test system: Rattus norvegicus; experiment: Effect on pica behaviour in Sprague-Dawley rat assessed as reduction in cisplatin-induced kaolin intake at 100 nmol/kg, IP pretreated for 15 mins followed by cisplatin treatment measured for 6 hrs; format: functional; conditions: time 6.25 hrs
[4] = test system: Rattus norvegicus; experiment: Effect on pica behaviour in Sprague-Dawley rat assessed as kaolin intake at 100 nmol/kg, IP measured for 24 hrs; format: functional
[5] = test system: Rattus norvegicus; experiment: Effect on pica behaviour in Sprague-Dawley rat assessed as reduction in GDF-15-induced kaolin intake pretreated intracerebroventricularly followed by GDF-15 treatment measured for 24 hrs; format: functional; conditions: dose 300-3000 pmol, route icv
[6] = test system: Rattus norvegicus; experiment: Effect on pica behaviour in Sprague-Dawley rat assessed as food intake at 100 nmol/kg, IP measured for 24 hrs in presence of Ondansetron; format: functional
[7] = test system: Rattus norvegicus; experiment: Effect on pica behaviour in Sprague-Dawley rat assessed as reduction in GDF-15-induced kaolin intake at 100 nmol/kg pretreated intraperitoneally followed by GDF-15 treatment measured for 24 hrs; format: functional; conditions: route ip
[8] = molecular target: T1, GDNF family receptor alpha-like; experiment: Binding affinity to C-terminal polyhis-tagged recombinant human GFRAL (19 to 351 residues) expressed in HEK293 cells assessed as dissociation constant by SPR analysis
[9] = test system: Rattus norvegicus; experiment: Effect on pica behaviour in Sprague-Dawley rat assessed as reduction in cisplatin-induced kaolin intake at 2 mg/kg, IP measured for 24 hrs; format: functional, organism-based
[10] = test system: Rattus norvegicus; experiment: Effect on pica behaviour in Sprague-Dawley rat assessed as reduction in cisplatin-induced anorexia at 100 nmol/kg, IP bid measured for 24 hrs in presence of Ondansetron; format: functional
[11] = Toxicity in Sprague-Dawley rat assessed as drug tolerance at 100 nmol/kg, IP measured for 24 hrs in presence of Ondansetron; conditions: in vivo
[12] = Toxicity in Sprague-Dawley rat assessed as food intake at 300 to 3000 pmol, ICV measured for 24 hrs; conditions: in vivo, icv_or_intrathecal, dose 300-3000 pmol
[13] = Toxicity in Sprague-Dawley rat assessed as food intake at 30 to 100 nmol/kg, IP measured for 24 hrs; conditions: in vivo, dose 30-100 nmol/kg
[14] = test system: Rattus norvegicus; experiment: Effect on GDF-15-induced anorexia in Sprague-Dawley rat at 300 to 3000 pmol pre-treated intracerebroventricularly followed by GDF-15 treatment measured for 24 hrs; format: functional; conditions: dose 300-3000 pmol, route icv
[15] = Toxicity in Sprague-Dawley rat assessed as drug tolerance at 100 nmol/kg, IP measured for 24 hrs; conditions: in vivo
[16] = test system: Rattus norvegicus; experiment: Effect on GDF-15-induced anorexia in Sprague-Dawley rat at 30 to 100 nmol/kg pretreated intraperitoneally followed by GDF-15 treatment measured for 24 hrs; format: functional; conditions: dose 30-100 nmol/kg, route ip
[17] = test system: Rattus norvegicus; experiment: Effect on pica behaviour in Sprague-Dawley rat assessed as food intake at 100 nmol/kg, IP measured for 24 hrs; format: functional
[18] = Toxicity in Sprague-Dawley rat assessed as food intake at 100 nmol/kg, IP measured for 24 hrs; conditions: in vivo
[19] = Toxicity in Sprague-Dawley rat assessed as kaolin intake at 300 to 3000 pmol, ICV measured for 24 hrs; conditions: in vivo, icv_or_intrathecal, dose 300-3000 pmol
[20] = Toxicity in Sprague-Dawley rat assessed as kaolin intake at 30 to 100 nmol/kg, IP measured for 24 hrs; conditions: in vivo, dose 30-100 nmol/kg
[21] = test system: Rattus norvegicus; experiment: Effect on pica behaviour in Sprague-Dawley rat assessed as kaolin intake at 100 nmol/kg, IP measured for 24 hrs in presence of Ondansetron; format: functional
[22] = Toxicity in cisplatin-induced nausea and vomiting Sprague-Dawley rat model assessed as additive effect at 100 nmol/kg, IP bid measured for 24 hrs in presence of Ondansetron; conditions: in vivo
[23] = Toxicity in Sprague-Dawley rat assessed as kaolin intake at 100 nmol/kg, IP measured for 24 hrs; conditions: in vivo
[24] = molecular target: T1, GDNF family receptor alpha-like; experiment: Binding affinity to C-terminal polyhis-tagged recombinant human GFRAL (19 to 351 residues) expressed in HEK293 cells assessed as dissociation constant by flow cytometric analysis; format: cell-based

Kd [1]: 0.0741 µM
Structure (SMILES): CC[C@H](C)[C@H](NC(=O)[C@H](CC(C)C)NC(=O)[C@H](CCC(=O)O)NC(=O)[C@H](CCC(=O)O)NC(=O)[C@H](CCCCN)NC(=O)[C@@H](NC(=O)CCCC[C@@H]1SC[C@@H]2NC(=O)N[C@@H]21)[C@@H](C)O)C(=O)N[C@@H](Cc1c[nH]cn1)C(=O)N[C@@H](C)C(=O)N[C@@H](Cc1c[nH]cn1)C(=O)N[C@@H](C)C(=O)N[C@@H](CC(=O)O)C(=O)N1CCC[C@H]1C(=O)N[C@@H](CCSC)C(=O)N[C@H](C(=O)N[C@@H](CC(C)C)C(=O)N[C@H](C(=O)N[C@@H](CCC(N)=O)C(=O)N[C@@H](CCCCN)C(=O)N[C@H](C(=O)N[C@@H](CC(=O)O)C(=O)N[C@H](C(=O)NCC(=O)N[C@H](C(=O)N[C@@H](CO)C(=O)N[C@@H](CC(C)C)C(=O)N[C@@H](CCC(N)=O)C(=O)N[C@H](C(=O)N[C@@H](Cc1ccc(O)cc1)C(=O)N[C@@H](CC(=O)O)C(=O)O)[C@@H](C)O)C(C)C)[C@@H](C)O)[C@@H](C)O)[C@@H](C)CC)C(C)C (Biotin-TKEELIHAHADPMVLIQKTDTGVSLQTYD-OH)

Kd [8]: 179 µM
Structure (SMILES): CC[C@H](C)[C@H](NC(=O)[C@H](CC(C)C)NC(=O)[C@H](CCC(=O)O)NC(=O)[C@H](CCC(=O)O)NC(=O)[C@H](CCCCN)NC(=O)[C@@H](N)[C@@H](C)O)C(=O)N[C@@H](Cc1c[nH]cn1)C(=O)N[C@@H](C)C(=O)N[C@@H](Cc1c[nH]cn1)C(=O)N[C@@H](C)C(=O)N[C@@H](CC(=O)O)C(=O)N1CCC[C@H]1C(=O)N[C@@H](CCSC)C(=O)N[C@H](C(=O)N[C@@H](CC(C)C)C(=O)N[C@H](C(=O)N[C@@H](CCC(N)=O)C(=O)N[C@@H](CCCCN)C(=O)N[C@H](C(=O)N[C@@H](CC(=O)O)C(=O)N[C@H](C(=O)NCC(=O)N[C@H](C(=O)N[C@@H](CO)C(=O)N[C@@H](CC(C)C)C(=O)N[C@@H](CCC(N)=O)C(=O)N[C@H](C(=O)N[C@@H](Cc1ccc(O)cc1)C(=O)N[C@@H](CC(=O)O)C(=O)O)[C@@H](C)O)C(C)C)[C@@H](C)O)[C@@H](C)O)[C@@H](C)CC)C(C)C (H-TKEELIHAHADPMVLIQKTDTGVSLQTYD-OH)
Activity [2]: Active | Activity [3]: Active | Activity [4]: inactive | Activity [5]: Active | Activity [6]: inactive | Activity [7]: Active | Activity [9]: Active | Activity [10]: Active | Activity [11]: Non-Toxic | Activity [12]: Non-Toxic | Activity [13]: Non-Toxic | Activity [14]: inactive | Activity [15]: Non-Toxic | Activity [16]: inactive | Activity [17]: inactive | Activity [18]: Non-Toxic | Activity [19]: Non-Toxic | Activity [20]: Non-Toxic | Activity [21]: inactive | Activity [22]: Non-Toxic | Activity [23]: Non-Toxic

Structure (SMILES): CC[C@H](C)[C@H](NC(=O)[C@H](CC(C)C)NC(=O)[C@H](CCC(=O)O)NC(=O)[C@H](CCC(=O)O)NC(=O)[C@H](CCCCN)NC(=O)[C@@H](NCCCn1nnc2c1-c1ccccc1CN(C(=O)CCCNC(=O)CCCCC[N+]1=C(/C=C/C=C/C=C3/N(C)c4ccc(S(=O)(=O)O)cc4C3(C)C)C(C)(C)c3cc(S(=O)(=O)[O-])ccc31)c1ccccc1-2)[C@@H](C)O)C(=O)N[C@@H](Cc1c[nH]cn1)C(=O)N[C@@H](C)C(=O)N[C@@H](Cc1c[nH]cn1)C(=O)N[C@@H](C)C(=O)N[C@@H](CC(=O)O)C(=O)N1CCC[C@H]1C(=O)N[C@@H](CCSC)C(=O)N[C@H](C(=O)N[C@@H](CC(C)C)C(=O)N[C@H](C(=O)N[C@@H](CCC(N)=O)C(=O)N[C@@H](CCCCN)C(=O)N[C@H](C(=O)N[C@@H](CC(=O)O)C(=O)N[C@H](C(=O)NCC(=O)N[C@H](C(=O)N[C@@H](CO)C(=O)N[C@@H](CC(C)C)C(=O)N[C@@H](CCC(N)=O)C(=O)N[C@H](C(=O)N[C@@H](Cc1ccc(O)cc1)C(=O)N[C@@H](CC(=O)O)C(=O)O)[C@@H](C)O)C(C)C)[C@@H](C)O)[C@@H](C)O)[C@@H](C)CC)C(C)C (H-[X3]([GABA-X4])KEELIHAHADPMVLIQKTDTGVSLQTYD-OH)
Kd [24]: 0.00898 µM
